Assay results taken from paper PMC4831868 (Cell reports, 2012).

Biological target: pHipA (Escherichia coli, UniProt P23874)
Experiment: ITC
Settings: no binding

pHipA, sequence (P23874 whole entry, looked up): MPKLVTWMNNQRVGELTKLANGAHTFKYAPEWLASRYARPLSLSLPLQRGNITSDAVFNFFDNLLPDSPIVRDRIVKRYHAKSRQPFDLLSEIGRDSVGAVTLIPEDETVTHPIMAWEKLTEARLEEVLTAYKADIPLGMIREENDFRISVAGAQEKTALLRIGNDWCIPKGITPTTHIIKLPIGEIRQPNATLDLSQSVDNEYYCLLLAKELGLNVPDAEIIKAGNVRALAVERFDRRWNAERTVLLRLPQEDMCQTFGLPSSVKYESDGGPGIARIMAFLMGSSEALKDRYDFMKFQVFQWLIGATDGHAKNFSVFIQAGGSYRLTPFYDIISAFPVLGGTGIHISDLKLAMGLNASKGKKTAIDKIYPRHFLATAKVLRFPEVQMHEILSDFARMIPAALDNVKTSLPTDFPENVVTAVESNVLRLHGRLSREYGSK

Nc1ncnc2c1ncn2[C@@H]1O[C@H](COP(=O)(O)OP(=O)(O)NP(=O)(O)O)[C@@H](O)[C@H]1O [AMPPNP]
ITC: revealed no interaction between ATP or the nonhydrolyzable ATP analogue, AMPPNP
